# Values quoted from earlier work in patent US10759750B2, “Beta lactams as modulators of glutamate uptake and methods for use thereof” (Temple University—Of The Commonwealth System of Higher …, priority 2016, dated 2020).
# Where two headings read alike, the source gives them in different places.
# Key:
# [1] = system: amyotrophic lateral sclerosis (ALS); conditions: ALS patients; 50 mg of Riluzole daily and palliative drugs; after 15 months of treatment
Compound,increase in life expectancy [1],"free, unbound cerebrospinal fluid/plasma ratio (based on AUCs (Lutsar and Friedland, 2000)) [%]","free, unbound cerebrospinal fluid/plasma ratio (based on Cmax (Chadwick et al., 1983))"
Nc1nc2ccc(OC(F)(F)F)cc2s1 [Riluzole],2-3 months,,
CO/N=C(\C(=O)N[C@@H]1C(=O)N2C(C(=O)O)=C(CSc3nc(=O)c(=O)[nH]n3C)CS[C@H]12)c1csc(N)n1 [ceftriaxone],,1,2-13%
